One test deals with T1, hTRPC5 S495A (Homo sapiens, UniProt Q9UL62, S495A).
T1 construct: We use full-length nontagged hTRPC5 construct for FLIPR assay unless indicated otherwise; expressed in transfected cells; host or cells: AD293
T1 sequence (Q9UL62 1-973 S495A): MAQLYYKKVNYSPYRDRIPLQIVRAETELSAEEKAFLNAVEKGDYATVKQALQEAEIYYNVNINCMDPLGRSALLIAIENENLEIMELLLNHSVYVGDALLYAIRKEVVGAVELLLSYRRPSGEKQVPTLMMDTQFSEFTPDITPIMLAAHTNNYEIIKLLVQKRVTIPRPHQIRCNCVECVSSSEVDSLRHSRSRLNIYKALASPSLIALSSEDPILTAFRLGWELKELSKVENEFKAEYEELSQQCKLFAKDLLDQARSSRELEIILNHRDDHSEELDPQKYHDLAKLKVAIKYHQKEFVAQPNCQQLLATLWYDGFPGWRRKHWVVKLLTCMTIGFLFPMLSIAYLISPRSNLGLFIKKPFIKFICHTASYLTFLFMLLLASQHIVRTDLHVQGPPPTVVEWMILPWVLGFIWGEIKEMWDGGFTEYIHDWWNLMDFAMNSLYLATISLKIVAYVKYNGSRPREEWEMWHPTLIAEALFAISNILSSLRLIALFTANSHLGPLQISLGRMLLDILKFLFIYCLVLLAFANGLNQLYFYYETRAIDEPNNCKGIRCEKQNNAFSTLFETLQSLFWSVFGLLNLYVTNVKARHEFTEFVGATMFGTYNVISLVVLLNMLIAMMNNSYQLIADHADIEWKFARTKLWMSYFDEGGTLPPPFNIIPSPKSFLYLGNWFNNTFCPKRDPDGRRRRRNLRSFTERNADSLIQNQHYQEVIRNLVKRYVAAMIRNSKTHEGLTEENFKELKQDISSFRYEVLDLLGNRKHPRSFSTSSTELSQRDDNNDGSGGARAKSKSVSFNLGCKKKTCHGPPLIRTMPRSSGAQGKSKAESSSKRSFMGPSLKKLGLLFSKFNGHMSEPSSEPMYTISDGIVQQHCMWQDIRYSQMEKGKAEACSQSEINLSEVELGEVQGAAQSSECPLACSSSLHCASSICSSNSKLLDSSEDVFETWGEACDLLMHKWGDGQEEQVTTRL
Nature of the test: FLIPR calcium assay, hTRPC5 mutant S495A. The class given is cell-based. The protocol: […]. Then the suspended cell culture was further diluted for 5.4- to 7-fold with culture medium and seeded onto black well, clear bottom, poly-D-lysine-coated 96-well plate (Costar) and cultured overnight. We use full-length nontagged hTRPC5 construct for FLIPR assay unless indicated otherwise. hTRPC5 plasmids were transfected into AD293 cells (60-80% confluence) with PEI. 30–40 hr post-transfection, culture medium was discarded and cells were incubated with 50 μl per well of 4 μM Rhod-2/AM (AAT Bioquest) in TARODES’s buffer (10 mM HEPES, 150 mM NaCl, 4 mM KCl, 2 mM MgCl2, 2 mM CaCl2, 11 mM glucose, pH 7.4) supplemented with 0.02% Pluronic F-127 (Sigma) for 5 min in dark at room temperature. Then dye was removed and replaced with 50 μl of TARODE’s buffer per well. The application of compounds and detection of intracellular calcium elevation were performed using FLIPR-TETRA (Molecular Devices) at room temperature (25–27°C). Fluorescence signals were read with excitation/emission at 510–545/565–625 nm.
[…]. Then fluorescence was measured for 300 s.
Buffer A contains 2× concentration of working concentration of inhibitor. […]. for control-Min, both buffer A and buffer B were replaced by TARODE’s buffer.
[…]; the average of fluorescence value of last 20 time points was considered as the ‘end fluorescence’. The value of ‘end fluorescence’ minus ‘start fluorescence’ was considered as ‘signal value’ for each well. […].
Three independent experiments were performed on different days (biological replicates), with each experiment containing three replicates (technique replicates).

The test system of a further test is TRPC7. Details: method as in Richter et al., 2014. The conditions noted are these: ref Richter et al., 2014; cited from earlier work.
A further test relates to TRPC5. More on the design: method as in Richter et al., 2014; Zhou et al., 2017; Zhu et al., 2015. The conditions noted are these: ref Richter et al., 2014; Zhou et al., 2017; Zhu et al., 2015; read-out: IC50 for inhibition of TRPC5; cited from earlier work.

The values that follow come from PMC7987348, “Structural basis for human TRPC5 channel inhibition by two distinct inhibitors” (eLife, 2021).

Where two headings read alike, the source gives them in different places.

Usually Hill slope stands for a measure of the steepness of the concentration-response curve. Take `Clc1ccc(Cn2c(CN3CCCC3)nc3ccccc32)cc1` [CMZ, clemizole]: the Hill slope on hTRPC5 S495A (CMZ) is −1.21. Further, the IC50 on hTRPC5 S495A (CMZ, 14 mM extracellular calcium, read-out: IC50) was 3.03 µM; on hTRPC5 S495A (CMZ, log of IC50 in μM, logIC50 ± SEM, n = 3, read-out: LogIC50 (converted)), 3.02 µM; with TRPC5, 1 to 1.3 µM. Moreover, on hTRPC5 S495A (read-out: normalized RFU (% WT), Clemizole 0.200195 μM, 14 mM Ca2+, each column one independent experiment), the remaining activity at 0.200195 µM turned out to be 83%. The remaining activity at 0.400391 µM at hTRPC5 S495A (read-out: normalized RFU (% WT), Clemizole 0.400391 μM, 14 mM Ca2+, each column one independent experiment) was 78.4%. In addition, the remaining activity at 0.800781 µM at hTRPC5 S495A (read-out: normalized RFU (% WT), Clemizole 0.800781 μM, 14 mM Ca2+, each column one independent experiment) came to 82%. Moreover, at hTRPC5 S495A (read-out: normalized RFU (% WT), Clemizole 1.60156 μM, 14 mM Ca2+, each column one independent experiment), the remaining activity at 1.60156 µM stood at 79.3%. Moreover, on hTRPC5 S495A (read-out: normalized RFU (% WT), Clemizole 3.20312 μM, 14 mM Ca2+, each column one independent experiment), the remaining activity at 3.20312 µM stood at 50.6%. Further, on hTRPC5 S495A (read-out: normalized RFU (% WT), Clemizole 6.40625 μM, 14 mM Ca2+, each column one independent experiment), the remaining activity at 6.40625 µM is 46.5%. Further, at hTRPC5 S495A (read-out: normalized RFU (% WT), Clemizole 12.8125 μM, 14 mM Ca2+, each column one independent experiment), the remaining activity at 12.8125 µM was determined as 40.3%. Further, in the test on TRPC7, the “fold more potent against TRPC5 than TRPC7” value was 26 fold.
